From ChEMBL document CHEMBL3526034 (Drug Metab Dispos, 2013)

Columns and labels:
[1] = biological target: UDP-glucuronosyltransferase 1A6 (Homo sapiens, UniProt P19224); test: (§1) Drug metabolism assessed as UDPGA-fortified human recombinant UGT1A6-mediated DTG glucuronide metabolite ((2S,3S,4S,5R,6S)-6-((4R,12aS)-9-(2,4-difluorobenzylcarbamoyl)-4-methyl-6,8-dioxo-3,4,6,8,12,12a-hexahydro-2H-[1,3]oxazino[3,2-d]pyrido[1,2-a]pyrazin-7-yloxy)-3,4,5-trihydroxytetrahydro-2H-pyran-2-carboxylic acid) formation at 16 uM after 120 mins by radio-HPLC analysis; format: ADME; settings: recombinant enzyme
UDP-glucuronosyltransferase 1A6, sequence (P19224 whole entry): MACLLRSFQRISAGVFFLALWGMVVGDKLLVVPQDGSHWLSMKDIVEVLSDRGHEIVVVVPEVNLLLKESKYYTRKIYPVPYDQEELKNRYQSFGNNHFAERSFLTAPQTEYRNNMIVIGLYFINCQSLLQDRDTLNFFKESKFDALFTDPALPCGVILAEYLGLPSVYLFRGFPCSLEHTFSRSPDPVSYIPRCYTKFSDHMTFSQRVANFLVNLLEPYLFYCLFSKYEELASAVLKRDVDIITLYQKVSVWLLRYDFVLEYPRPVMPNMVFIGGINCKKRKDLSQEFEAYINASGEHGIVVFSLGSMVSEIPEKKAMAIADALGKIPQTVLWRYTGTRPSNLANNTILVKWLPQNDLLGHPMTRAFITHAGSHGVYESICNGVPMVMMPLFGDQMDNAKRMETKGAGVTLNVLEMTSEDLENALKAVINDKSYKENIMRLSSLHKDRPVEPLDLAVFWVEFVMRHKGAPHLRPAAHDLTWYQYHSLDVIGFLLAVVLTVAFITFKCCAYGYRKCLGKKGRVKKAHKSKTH

[2] = biological target: UDP-glucuronosyltransferase 2B7 (Homo sapiens, UniProt P16662); test: Inhibition of human recombinant UGT2B7 expressed in supersomes assessed as 7-HFC glucuronidation up to 100 uM by fluoresence analysis; format: ADME; settings: recombinant enzyme
UDP-glucuronosyltransferase 2B7, sequence (P16662 whole entry): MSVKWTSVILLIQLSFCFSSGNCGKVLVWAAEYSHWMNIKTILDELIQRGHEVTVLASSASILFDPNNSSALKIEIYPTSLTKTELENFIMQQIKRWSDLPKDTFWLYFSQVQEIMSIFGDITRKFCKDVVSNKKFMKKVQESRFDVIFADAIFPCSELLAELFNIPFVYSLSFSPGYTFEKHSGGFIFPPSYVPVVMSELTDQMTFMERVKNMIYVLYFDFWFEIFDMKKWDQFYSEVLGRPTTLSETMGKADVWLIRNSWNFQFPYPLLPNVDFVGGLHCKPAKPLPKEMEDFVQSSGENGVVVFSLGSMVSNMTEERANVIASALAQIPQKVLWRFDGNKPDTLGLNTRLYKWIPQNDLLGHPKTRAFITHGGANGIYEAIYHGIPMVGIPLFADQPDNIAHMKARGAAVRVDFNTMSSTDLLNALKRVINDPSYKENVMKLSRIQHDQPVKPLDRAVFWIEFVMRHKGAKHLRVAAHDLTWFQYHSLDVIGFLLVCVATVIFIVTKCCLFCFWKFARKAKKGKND

[3] = biological target: T1, Broad substrate specificity ATP-binding cassette transporter ABCG2 (Homo sapiens, UniProt Q9UNQ0); test: Inhibition of human BCRP; format: ADME
T1 sequence (Q9UNQ0 whole entry): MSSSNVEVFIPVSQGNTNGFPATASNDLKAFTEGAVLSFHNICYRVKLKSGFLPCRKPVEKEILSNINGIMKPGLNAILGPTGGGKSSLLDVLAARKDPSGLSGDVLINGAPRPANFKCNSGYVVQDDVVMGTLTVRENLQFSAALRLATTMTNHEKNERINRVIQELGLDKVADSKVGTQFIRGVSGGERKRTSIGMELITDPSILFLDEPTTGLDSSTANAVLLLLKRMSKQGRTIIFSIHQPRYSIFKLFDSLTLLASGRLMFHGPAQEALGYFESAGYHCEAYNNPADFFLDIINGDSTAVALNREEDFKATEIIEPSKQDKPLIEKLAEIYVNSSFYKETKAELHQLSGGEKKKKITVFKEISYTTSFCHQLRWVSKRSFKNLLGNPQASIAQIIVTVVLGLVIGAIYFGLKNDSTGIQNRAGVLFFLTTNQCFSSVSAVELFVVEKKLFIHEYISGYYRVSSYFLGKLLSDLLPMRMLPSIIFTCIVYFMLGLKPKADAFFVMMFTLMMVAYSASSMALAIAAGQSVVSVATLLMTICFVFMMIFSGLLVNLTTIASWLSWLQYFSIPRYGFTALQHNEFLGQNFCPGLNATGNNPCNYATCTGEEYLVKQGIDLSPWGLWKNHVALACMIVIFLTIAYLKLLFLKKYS

UGT1A1 = UGT1A1 (Homo sapiens, UniProt P22309); test: Inhibition of human recombinant UGT1A1 expressed in supersomes assessed as scopoletin glucuronidation at 100 uM by fluorescence analysis; format: ADME; settings: probe scopoletin
UGT1A1, sequence (P22309 whole entry): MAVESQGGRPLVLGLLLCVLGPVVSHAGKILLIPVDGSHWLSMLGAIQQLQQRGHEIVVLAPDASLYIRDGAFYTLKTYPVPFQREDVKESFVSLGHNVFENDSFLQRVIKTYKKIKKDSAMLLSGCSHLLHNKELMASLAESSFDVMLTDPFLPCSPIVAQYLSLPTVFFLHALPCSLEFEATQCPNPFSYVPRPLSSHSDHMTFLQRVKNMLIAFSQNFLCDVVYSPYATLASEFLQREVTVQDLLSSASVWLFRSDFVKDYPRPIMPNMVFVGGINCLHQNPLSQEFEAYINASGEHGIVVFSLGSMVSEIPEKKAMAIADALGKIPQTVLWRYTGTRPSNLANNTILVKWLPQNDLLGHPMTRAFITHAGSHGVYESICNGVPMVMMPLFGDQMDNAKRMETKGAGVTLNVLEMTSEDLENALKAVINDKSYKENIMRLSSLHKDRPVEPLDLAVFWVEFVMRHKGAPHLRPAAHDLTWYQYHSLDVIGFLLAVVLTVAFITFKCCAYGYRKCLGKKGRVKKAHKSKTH

Cytochrome P450 3A4 [4] = biological target: T2, Cytochrome P450 3A4 (Homo sapiens, UniProt P08684); test: Drug metabolism in supersomes expressing human recombinant CYP3A4 assessed as for NADPH-fortified enzyme-mediated metabolite M1 ((4R,12aS)-7-hydroxy-4-methyl-6,8-dioxo-3,4,6,8,12,12a-hexahydro-2H-[1,3]oxazino[3,2-d]pyrido[1,2-a]pyrazine-9-carboxamide) formation at 5 uM after 120 mins by radio-HPLC analysis; format: ADME
T2 sequence (P08684 whole entry): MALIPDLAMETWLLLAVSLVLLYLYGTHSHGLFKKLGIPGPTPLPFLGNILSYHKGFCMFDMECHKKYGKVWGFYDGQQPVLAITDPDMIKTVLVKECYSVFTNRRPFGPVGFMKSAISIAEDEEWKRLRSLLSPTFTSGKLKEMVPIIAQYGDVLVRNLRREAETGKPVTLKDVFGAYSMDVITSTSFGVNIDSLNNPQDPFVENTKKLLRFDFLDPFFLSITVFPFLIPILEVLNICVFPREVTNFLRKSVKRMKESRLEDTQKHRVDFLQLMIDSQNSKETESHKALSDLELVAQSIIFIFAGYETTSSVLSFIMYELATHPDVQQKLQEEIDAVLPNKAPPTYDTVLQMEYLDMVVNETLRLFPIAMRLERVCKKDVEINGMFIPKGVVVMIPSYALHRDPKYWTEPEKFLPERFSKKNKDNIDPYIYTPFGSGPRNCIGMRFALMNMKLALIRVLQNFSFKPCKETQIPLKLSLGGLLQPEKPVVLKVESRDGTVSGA

Cytochrome P450 1A2 = biological target: T3, Cytochrome P450 1A2 (Homo sapiens, UniProt P05177); test: Inhibition of CYP1A2 in human liver microsomes using phenacetin as substrate preincubated for 20 mins with substrate prior to initiation of reaction with NADPH by HPLC analysis; format: ADME
T3 sequence (P05177 whole entry): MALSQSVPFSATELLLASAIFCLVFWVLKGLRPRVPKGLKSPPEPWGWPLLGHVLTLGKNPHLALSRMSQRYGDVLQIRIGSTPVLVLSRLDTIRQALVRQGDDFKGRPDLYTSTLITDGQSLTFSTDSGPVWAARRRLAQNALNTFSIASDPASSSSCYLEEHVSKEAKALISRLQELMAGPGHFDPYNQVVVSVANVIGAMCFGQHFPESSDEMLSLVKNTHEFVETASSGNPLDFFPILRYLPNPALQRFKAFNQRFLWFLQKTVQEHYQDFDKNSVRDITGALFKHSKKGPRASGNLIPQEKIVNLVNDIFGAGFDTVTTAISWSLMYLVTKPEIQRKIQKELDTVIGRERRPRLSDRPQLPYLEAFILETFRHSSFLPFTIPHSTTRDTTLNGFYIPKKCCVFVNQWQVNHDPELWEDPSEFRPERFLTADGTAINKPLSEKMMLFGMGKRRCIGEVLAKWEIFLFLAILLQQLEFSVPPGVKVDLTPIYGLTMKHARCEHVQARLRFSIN

MDR1 (P-gp, ABCB1) = MDR1 (P-gp, ABCB1) (Homo sapiens, UniProt P08183); test: Activity at human MDR1 expressed in MDCK2 cells assessed as apical to basolateral mass balance at 3 uM by liquid scintillation counting analysis; format: ADME, cell-based, MDCK-II; settings: MDCK-MDR1, read-out: Activity
MDR1 (P-gp, ABCB1), sequence (P08183 whole entry): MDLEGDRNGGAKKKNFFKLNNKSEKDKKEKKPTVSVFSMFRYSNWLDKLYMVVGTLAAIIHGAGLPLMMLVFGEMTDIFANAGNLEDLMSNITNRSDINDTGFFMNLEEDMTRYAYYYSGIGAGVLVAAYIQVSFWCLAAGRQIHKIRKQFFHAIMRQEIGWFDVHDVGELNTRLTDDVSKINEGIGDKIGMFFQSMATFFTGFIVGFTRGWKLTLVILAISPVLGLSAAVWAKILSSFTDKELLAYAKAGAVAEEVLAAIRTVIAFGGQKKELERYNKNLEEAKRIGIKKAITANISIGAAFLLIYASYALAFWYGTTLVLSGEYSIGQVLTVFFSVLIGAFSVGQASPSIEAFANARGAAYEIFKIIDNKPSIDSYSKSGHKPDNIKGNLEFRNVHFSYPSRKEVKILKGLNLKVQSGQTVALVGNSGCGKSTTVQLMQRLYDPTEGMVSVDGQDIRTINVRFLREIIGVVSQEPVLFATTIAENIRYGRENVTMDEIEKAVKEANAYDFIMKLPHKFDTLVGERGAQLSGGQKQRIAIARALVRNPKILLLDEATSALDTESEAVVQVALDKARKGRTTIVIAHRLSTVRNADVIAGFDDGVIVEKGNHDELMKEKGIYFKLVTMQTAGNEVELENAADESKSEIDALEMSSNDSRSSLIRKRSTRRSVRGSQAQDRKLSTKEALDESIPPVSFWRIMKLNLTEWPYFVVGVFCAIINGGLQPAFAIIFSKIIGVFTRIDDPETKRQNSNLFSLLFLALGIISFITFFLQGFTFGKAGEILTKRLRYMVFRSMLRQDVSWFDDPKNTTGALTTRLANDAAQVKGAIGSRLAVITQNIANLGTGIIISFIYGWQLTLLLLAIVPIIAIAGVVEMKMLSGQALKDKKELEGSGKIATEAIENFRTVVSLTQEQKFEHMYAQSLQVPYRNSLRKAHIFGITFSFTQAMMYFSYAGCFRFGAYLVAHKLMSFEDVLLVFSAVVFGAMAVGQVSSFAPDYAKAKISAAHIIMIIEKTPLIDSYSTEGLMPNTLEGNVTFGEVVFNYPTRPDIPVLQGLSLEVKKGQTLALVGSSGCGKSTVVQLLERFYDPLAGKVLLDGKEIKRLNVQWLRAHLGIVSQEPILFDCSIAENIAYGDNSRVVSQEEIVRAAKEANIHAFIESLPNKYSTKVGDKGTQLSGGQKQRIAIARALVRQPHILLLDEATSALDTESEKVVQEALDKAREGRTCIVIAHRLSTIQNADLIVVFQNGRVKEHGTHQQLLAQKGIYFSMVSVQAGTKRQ

[5] = biological target: UDP-glucuronosyltransferase 1A9 (Homo sapiens, UniProt O60656); test: as §1, with “UGT1A9-mediated” for “UGT1A6-mediated”; format: ADME; settings: recombinant enzyme
UDP-glucuronosyltransferase 1A9, sequence (O60656 whole entry): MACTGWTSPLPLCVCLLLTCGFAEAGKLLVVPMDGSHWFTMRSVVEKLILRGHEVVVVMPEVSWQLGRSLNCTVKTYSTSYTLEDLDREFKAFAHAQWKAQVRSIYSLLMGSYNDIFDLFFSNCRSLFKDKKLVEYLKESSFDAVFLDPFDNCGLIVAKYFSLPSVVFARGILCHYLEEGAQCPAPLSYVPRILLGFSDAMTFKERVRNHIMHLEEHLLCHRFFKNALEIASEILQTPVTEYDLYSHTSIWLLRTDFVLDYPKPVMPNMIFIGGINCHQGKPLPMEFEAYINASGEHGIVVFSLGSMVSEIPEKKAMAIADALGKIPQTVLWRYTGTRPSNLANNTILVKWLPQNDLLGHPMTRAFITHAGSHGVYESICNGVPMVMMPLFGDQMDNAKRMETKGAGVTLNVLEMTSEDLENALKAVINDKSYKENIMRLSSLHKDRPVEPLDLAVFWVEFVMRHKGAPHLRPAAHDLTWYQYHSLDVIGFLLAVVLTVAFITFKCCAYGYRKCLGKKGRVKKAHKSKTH

Cytochrome P450 2D6 = Cytochrome P450 2D6 (Homo sapiens, UniProt P10635); test: Drug metabolism in supersomes expressing human recombinant CYP2D6 assessed as NADPH-fortified enzyme-mediated metabolite formation at 5 uM after 120 mins by radio HPLC analysis; format: ADME; settings: 2 h
Cytochrome P450 2D6, sequence (P10635 whole entry): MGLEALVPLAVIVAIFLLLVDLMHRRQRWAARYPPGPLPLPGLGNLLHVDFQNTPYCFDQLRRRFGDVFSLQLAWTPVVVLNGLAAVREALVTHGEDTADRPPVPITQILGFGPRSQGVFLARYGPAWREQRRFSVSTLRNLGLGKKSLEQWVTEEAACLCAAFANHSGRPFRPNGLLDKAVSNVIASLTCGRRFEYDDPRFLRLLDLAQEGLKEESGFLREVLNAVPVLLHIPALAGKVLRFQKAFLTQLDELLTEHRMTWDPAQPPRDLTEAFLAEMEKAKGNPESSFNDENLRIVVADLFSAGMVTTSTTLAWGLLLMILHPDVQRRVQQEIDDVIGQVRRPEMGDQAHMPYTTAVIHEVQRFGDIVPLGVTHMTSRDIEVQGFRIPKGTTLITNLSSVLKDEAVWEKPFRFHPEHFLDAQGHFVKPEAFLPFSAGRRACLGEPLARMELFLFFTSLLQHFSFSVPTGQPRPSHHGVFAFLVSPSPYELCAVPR

BCRP (ABCG2) [6] = biological target: T4, BCRP (ABCG2) (Homo sapiens, UniProt Q9UNQ0); test: Activity at human BCRP expressed in MDCK2 cells assessed as basolateral to apical mass balance at 3 uM by liquid scintillation counting analysis in presence of 3 uM P-gp and BCRP inhibitor GF120918; format: ADME, cell-based, MDCK-II; settings: with GF120918 (P-gp and BCRP inhibitor), read-out: Activity
T4 sequence (Q9UNQ0 whole entry): T1 sequence (Q9UNQ0 whole entry)

BCRP (ABCG2) [7] = biological target: T4, BCRP (ABCG2); test: Activity at human BCRP expressed in MDCK2 cells assessed as apical to basolateral mass balance at 3 uM by liquid scintillation counting analysis; format: ADME, cell-based, MDCK-II; settings: read-out: Activity
Cytochrome P450 3A4 [8] = biological target: T2, Cytochrome P450 3A4; test: Drug metabolism in supersomes expressing human recombinant CYP3A4 assessed as intrinsic clearance for NADPH-fortified enzyme-mediated metabolite M3 ((4R,12aS)-N-((3,5-difluorophenyl)(hydroxy)methyl)-7-hydroxy-4-methyl-6,8-dioxo-3,4,6,8,12,12a-hexahydro-2H-[1,3]oxazino[3,2-d]pyrido[1,2-a]pyrazine-9-carboxamide) formation at 5 uM after 120 mins by radio-HPLC analysis; format: ADME
[9] = biological target: UDP-glucuronosyltransferase 1A3 (Homo sapiens, UniProt P35503); test: as §1, with “UGT1A3-mediated” for “UGT1A6-mediated”; format: ADME; settings: recombinant enzyme
UDP-glucuronosyltransferase 1A3, sequence (P35503 whole entry): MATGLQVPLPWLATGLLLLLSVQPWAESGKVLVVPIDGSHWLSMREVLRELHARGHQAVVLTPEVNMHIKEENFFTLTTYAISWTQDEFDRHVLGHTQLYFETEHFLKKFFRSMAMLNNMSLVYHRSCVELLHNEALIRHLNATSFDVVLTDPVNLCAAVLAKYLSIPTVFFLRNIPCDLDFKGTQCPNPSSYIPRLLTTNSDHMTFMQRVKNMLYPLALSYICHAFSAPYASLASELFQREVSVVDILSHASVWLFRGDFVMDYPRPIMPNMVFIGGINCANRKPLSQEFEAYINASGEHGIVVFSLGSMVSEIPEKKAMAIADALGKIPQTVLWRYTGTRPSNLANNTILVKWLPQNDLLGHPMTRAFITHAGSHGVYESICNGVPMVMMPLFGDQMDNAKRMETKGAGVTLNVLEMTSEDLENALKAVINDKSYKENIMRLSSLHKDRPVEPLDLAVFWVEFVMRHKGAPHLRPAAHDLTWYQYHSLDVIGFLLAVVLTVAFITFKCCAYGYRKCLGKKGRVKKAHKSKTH

[10] = In vitro passive membrane permeability across dog MDCK2 cells at 3 uM using fasted state-simulated intestinal fluid buffer at pH 7.4 on donor side and 1% human serum albumin at pH 7.4 on receiver side by liquid scintillation counting analysis; format: ADME, cell-based, Canis lupus familiaris, MDCK-II; settings: MDCK, read-out: permeability
[11] = as §1, with “metabolism in human hepatocytes” for “metabolism”, “as” for “as UDPGA-fortified human recombinant UGT1A6-mediated”, “50” for “16”, “4 to 20 hrs” for “120 mins”; format: ADME, cell-based, Hepatocyte

## C[C@@H]1CCO[C@H]2Cn3cc(C(=O)NCc4ccc(F)cc4F)c(=O)c(O)c3C(=O)N12 [DOLUTEGRAVIR]
[1]
  Drug metabolism: metabolite_not_detected
[2]
  inhibition (INH): Not Active
[3]
  IC50: 67 µM
UGT1A1
  inhibition at 100 µM: 33%
Cytochrome P450 3A4 [4]
  Drug metabolism: metabolite_detected
Cytochrome P450 1A2
  IC50: > 100 µM
MDR1 (P-gp, ABCB1)
  recovery at 3 µM: 84%
[5]
  Drug metabolism: metabolite_detected
Cytochrome P450 2D6
  Drug metabolism: metabolite_not_detected
BCRP (ABCG2) [6]
  recovery at 3 µM: 76%
BCRP (ABCG2) [7]
  recovery at 3 µM: 81%
Cytochrome P450 3A4 [8]
  CL: 3 µL/min/mg
[9]
  Drug metabolism: metabolite_detected
[10]
  Papp at 3 µM: 25.2 ×10⁻⁶ cm/s
[11]
  Drug metabolism: metabolite_detected
